# In article PMC8286840, “Identifying SARS-CoV-2 antiviral compounds by screening for small molecule inhibitors of Nsp3 papain-like protease” (Biochemical Journal, 2021):
# Where a name gives a salt, the structure may show the parent alone. Read-outs that look alike come from different tables or passages of the source.
# Tests used:
# [1] = molecular target: T1, SARS-CoV-2 PLpro (nsp3 1564–1878) (Severe acute respiratory syndrome coronavirus 2, UniProt P0DTD1); assay: biochemical; set-up: FRET-quenched peptide (Pro3) cleavage by PLpro, 10 min pre-incubation, slope over 20 min, normalised to no-compound control; conditions: high concentration screen, read-out: % of control remaining
# [2] = molecular target: T1, SARS-CoV-2 PLpro (nsp3 1564–1878); assay: biochemical; set-up: FRET-quenched peptide (Pro3) cleavage by PLpro, 10 min pre-incubation, slope over 20 min, normalised to no-compound control; conditions: low concentration screen, read-out: % of control remaining
compound,measurement,setting,value
NCC(O)C1CCCCCCC1 (centres unmarked) [2-Cyclooctyl-2-hydroxyethylamine hydrochloride],remaining activity at 3.75 µM,[1]; Well no.=485,105%
same,remaining activity at 1.25 µM,[2]; Well no.=485,106%
"COc1cc2c[n+](C)c3c4cc5c(cc4ccc3c2cc1OC)OCO5 [2,3-dimethoxy-12-methyl[1,3]benzodioxolo[5,6-c]phenanthridin-12-ium chloride]",remaining activity at 3.75 µM,[1]; Well no.=5862,98.5%
same,remaining activity at 1.25 µM,[2]; Well no.=5862,100%
CN1CCC[C@H]1c1cccnc1 [(-)-Nicotine],remaining activity at 3.75 µM,[1]; Well no.=3328,99.2%
same,remaining activity at 1.25 µM,[2]; Well no.=3328,96.5%
CSc1ccc2c(c1)C(N1CCN(C)CC1)Cc1ccccc1S2 (centres unmarked) [Methiothepin mesylate],remaining activity at 3.75 µM,[1]; Well no.=801,101%
same,remaining activity at 1.25 µM,[2]; Well no.=801,99.9%
CCN(CC)CCNC(=O)c1cc(S(C)(=O)=O)ccc1OC [Tiapride hydrochloride],remaining activity at 3.75 µM,[1]; Well no.=1185,100%
same,remaining activity at 1.25 µM,[2]; Well no.=1185,101%
CC(=O)OC(C)C[N+](C)(C)C (stereo not drawn) [Acetyl-beta-methylcholine chloride],remaining activity at 3.75 µM,[1]; Well no.=107,98.4%
same,remaining activity at 1.25 µM,[2]; Well no.=107,98.7%
CSC(=S)NCc1c[nH]c2ccccc12 [Brassinin],remaining activity at 3.75 µM,[1]; Well no.=3801,101%
same,remaining activity at 1.25 µM,[2]; Well no.=3801,101%
c1cc(CN2CCCNCCNCCCNCC2)ccc1CN1CCCNCCNCCCNCC1 [Plerixafor (octahydrochloride)],remaining activity at 3.75 µM,[1]; Well no.=8020,94.1%
same,remaining activity at 3.75 µM,[1]; Well no.=8097,101%
same,remaining activity at 3.75 µM,[1]; Well no.=8749,100%
same,remaining activity at 1.25 µM,[2]; Well no.=8020,95.7%
same,remaining activity at 1.25 µM,[2]; Well no.=8097,104%
same,remaining activity at 1.25 µM,[2]; Well no.=8749,100%
O=C(O)Cc1sc(-c2ccccc2)nc1-c1ccc(Cl)cc1 [Fentiazac],remaining activity at 3.75 µM,[1]; Well no.=1772,97.2%
same,remaining activity at 1.25 µM,[2]; Well no.=1772,100%
Nc1ncnc2c1nc(Sc1ccc(Cl)cc1)n2C1OC2COP(=O)(O)O[C@@H]2[C@@H]1O (some centres unmarked) [8-(4-Chlorophenylthio)-cAMP sodium],remaining activity at 3.75 µM,[1]; Well no.=126,105%
same,remaining activity at 1.25 µM,[2]; Well no.=126,104%
"CCCCCCCOc1cc2c(cc1/C(C)=C/c1ccc(C(=O)O)cc1)C(C)(C)CCS2(=O)=O [4-{(1E)-2-[7-(heptyloxy)-4,4-dimethyl-1,1-dioxido-3,4-dihydro-2H-thiochromen-6-yl]-1-propenyl}benzoic acid]",remaining activity at 3.75 µM,[1]; Well no.=5553,105%
same,remaining activity at 1.25 µM,[2]; Well no.=5553,103%
CCCCCCCCCCCCC/C=C/[C@@H](O)[C@@H](N)CO [D-erythro-Sphingosine],remaining activity at 3.75 µM,[1]; Well no.=7207,96.9%
same,remaining activity at 1.25 µM,[2]; Well no.=7207,100%
NC(=O)c1cccc(NC(=O)/C=C/c2c[nH]c3ccccc23)c1 [(E)-3-(3-(1H-indol-3-yl)acrylamido)benzamide],remaining activity at 3.75 µM,[1]; Well no.=5576,93.4%
same,remaining activity at 1.25 µM,[2]; Well no.=5576,93.5%
O=P(O)(O)C(O)(Cc1cccnc1)P(=O)(O)O [Risedronate sodium],remaining activity at 3.75 µM,[1]; Well no.=4819,102%
same,remaining activity at 1.25 µM,[2]; Well no.=4819,104%
NS(=O)(=O)c1cc(C(=O)O)c(NCc2ccco2)cc1Cl [Furosemide],remaining activity at 3.75 µM,[1]; Well no.=659,94.4%
same,remaining activity at 3.75 µM,[1]; Well no.=2166,99.5%
same,remaining activity at 3.75 µM,[1]; Well no.=7462,102%
same,remaining activity at 1.25 µM,[2]; Well no.=659,92.2%
same,remaining activity at 1.25 µM,[2]; Well no.=2166,101%
same,remaining activity at 1.25 µM,[2]; Well no.=7462,102%
CN(C)CCc1ccc(O)cc1 [Hordenine sulfate],remaining activity at 3.75 µM,[1]; Well no.=3106,100%
same,remaining activity at 1.25 µM,[2]; Well no.=3106,97.9%
O=C1c2c(O)ccc(O)c2C(=O)c2c(NCCNCCO)ccc(NCCNCCO)c21 [Mitoxantrone],remaining activity at 3.75 µM,[1]; Well no.=1028,101%
same,remaining activity at 3.75 µM,[1]; Well no.=1997,103%
same,remaining activity at 1.25 µM,[2]; Well no.=1028,100%
same,remaining activity at 1.25 µM,[2]; Well no.=1997,104%
CCCCCCCCCCC/C=C/CCCCC(=O)O [6(E)-Octadecenoic acid],remaining activity at 3.75 µM,[1]; Well no.=4318,99.5%
same,remaining activity at 1.25 µM,[2]; Well no.=4318,105%
Oc1cc(Cl)ccc1Oc1ccc(Cl)cc1Cl [Triclosan],remaining activity at 3.75 µM,[1]; Well no.=8252,98.2%
same,remaining activity at 1.25 µM,[2]; Well no.=8252,101%
CC(C)(C)NCC(O)c1ccccc1Cl (centres unmarked) [Tulobuterol hydrochloride],remaining activity at 3.75 µM,[1]; Well no.=1291,106%
same,remaining activity at 1.25 µM,[2]; Well no.=1291,105%
Cc1[nH]c2ccccc2c1CCNCc1ccc(/C=C/C(=O)NO)cc1 [Panobinostat (LBH589)],remaining activity at 3.75 µM,[1]; Well no.=4832,96.4%
same,remaining activity at 1.25 µM,[2]; Well no.=4832,94.6%
CCCC(CCC)C(=O)O [Valproic acid sodium],remaining activity at 3.75 µM,[1]; Well no.=812,99.4%
same,remaining activity at 1.25 µM,[2]; Well no.=812,99.6%
NS(=O)(=O)OC[C@H]1C[C@@H](Nc2ccnc3cc(-c4cccc(SC(F)(F)F)c4)nn23)[C@H](O)[C@@H]1O [TAK-243],remaining activity at 3.75 µM,[1]; Well no.=7078,97%
same,remaining activity at 1.25 µM,[2]; Well no.=7078,102%
Nc1ncnc2c1ncn2[C@H]1C[C@H](O)[C@@H](CO)O1 [2'-Deoxyadenosine monohydrate],remaining activity at 3.75 µM,[1]; Well no.=8885,90.7%
same,remaining activity at 1.25 µM,[2]; Well no.=8885,95.3%
COc1cccc(Nc2c(C(N)=O)cnc3c(C)cc(S(=O)(=O)c4cccc(C(=O)N(C)C)c4)cc23)c1 [GSK256066],remaining activity at 3.75 µM,[1]; Well no.=5300,98.4%
same,remaining activity at 1.25 µM,[2]; Well no.=5300,95.5%
CSc1cccc(Nc2ncc3cc(-c4c(Cl)cccc4Cl)c(=O)n(C)c3n2)c1 [PD173955],remaining activity at 3.75 µM,[1]; Well no.=2985,102%
same,remaining activity at 1.25 µM,[2]; Well no.=2985,102%
Nc1ccc(S(=O)(=O)NC(=O)c2ccccc2)cc1 [Sulfabenzamide],remaining activity at 3.75 µM,[1]; Well no.=7306,102%
same,remaining activity at 1.25 µM,[2]; Well no.=7306,103%
CC(C)c1nc(CN(C)C(=O)N[C@H](C(=O)N[C@@H](Cc2ccccc2)C[C@H](O)[C@H](Cc2ccccc2)NC(=O)OCc2cncs2)C(C)C)cs1 [Ritonavir],remaining activity at 3.75 µM,[1]; Well no.=4721,102%
same,remaining activity at 1.25 µM,[2]; Well no.=4721,102%
COc1ccc2c(c1)[C@]13CCCC[C@@H]1[C@H](C2)N(C)CC3 [Dextromethorphan (hydrobromide hydrate)],remaining activity at 3.75 µM,[1]; Well no.=8295,96.5%
same,remaining activity at 1.25 µM,[2]; Well no.=8295,101%
Cc1ccc(O)c(N=Nc2ccccc2)n1 [SIB 1757],remaining activity at 3.75 µM,[1]; Well no.=1371,102%
same,remaining activity at 1.25 µM,[2]; Well no.=1371,99.7%
Nc1nc(CC(=O)Nc2ccc(CCNC[C@H](O)c3ccccc3)cc2)cs1 [Mirabegron],remaining activity at 3.75 µM,[1]; Well no.=6273,116%
same,remaining activity at 1.25 µM,[2]; Well no.=6273,107%
COc1ccc(CC2NCCc3cc(OC)c(OC)cc32)cc1OC (centres unmarked) [Tetrahydropapaverine HCl],remaining activity at 3.75 µM,[1]; Well no.=8290,98%
same,remaining activity at 1.25 µM,[2]; Well no.=8290,99.5%
